Measurements from patent US10905738B2, “Synthetic peptides, prodrugs, pharmaceutical compositions and uses” (Biozeus Desenvolvimento De Produtos Biofarmacêuticos, priority 2018, dated 2021).
Where a SMILES comes first, the peptide text is derived from it.

Tested on: monocrotaline-induced model of PAH
Assay: anti-inflammatory effect in monocrotaline-induced model of PAH (lymph node weight, heart homogenate cytokines by ELISA)
Format: in vivo, male Wistar Rats
Settings: 0.06 mg/kg, MCT rats
Description: In the experiment described in example 5, the animals were killed for postmortem analyses of inflammatory markers.
In 1 out of 5 patients with PAH, the mediastinal lymph nodes are enlarged due to inflammation-related edema (BERGIN, C. J., PARK, K. J. Lymph node enlargement in pulmonary arterial hypertension due to chronic thromboembolism. J Med Imaging Radiat Oncol, 52(1):18-23. 2008). Edematous organs weigh more, due to the increased liquid content, therefore we weighed several organs of the animals of example 5 post-euthanasia.
Samples of hearts of the monocrotaline study were investigated to uncover the potential anti-inflammatory action of SEQ ID NO: 19. Hearts were kept on ice during all sample homogenization processes. Lysis buffer containing 1% protease inhibitor cocktail (Sigma) diluted in phosphate-buffered saline (PBS) was added in a proportion of 1 mL for each sample. Sodium orthovanadate (SIGMA) 1 mM was also added. Tissues were homogenized and then centrifuged at 10,000 g for 10 min. Supernatants of each sample were collected into sterile identified tubes for measurements of total protein and cytokine levels (tumor necrosis factor (TNF)-α, interferon (INF)-γ, and interleukin (IL)-1β).
Total protein values in the samples were measured using the Bradford assay (BioRad, Hercules, Calif., USA), according to manufacturer's instructions. Briefly, the protocol was performed in a microplate in a final volume of 150 μl. A calibration curve linear range between 0.025 and 2.0 mg/ml was prepared with bovine serum albumin (BSA, SIGMA). Protein solutions were assayed in duplicate. Samples were diluted 20-fold into lysis buffer, and then 25 μl from these samples was loaded into each well. Using a multichannel pipet, 125 μl of Quick Start™ Bradford 1× Dye Reagent solution was added to yield a final volume of 150 μl. The samples were incubated at room temperature for 5 min, and the absorbance was then measured with a spectrophotometer at 595 nm (SpectraMax Microplate reader, Molecular Devices, San Jose, Calif., USA). The standard curve was plotted as a linear regression line that was interpolated with the mean absorbance of each sample in order to find a sample's total protein concentration expressed as mg/ml.
Concentrations of TNF-α, INF-γ, and IL-1β were measured using an enzyme-linked immunosorbent assay (ELISA) for heart homogenates. TNF-α (Catalog #900-K54) and INF-γ (Catalog #900-K98) kits were purchased from Peprotech (Rocky Hill, […]., USA) while the IL-1β (DY401) kit was from R&D Systems (Minneapolis, Minn., USA). The assays were performed in accordance with the manufacturer's recommendations.
Data analyses were performed with a statistical software package (Prism version 5.0, Graph-Pad Software, San Diego, Calif.). Data were expressed as mean±SEM. […]

In the case of `CC[C@H](C)[C@H](NC(=O)[C@H](Cc1c[nH]c2ccccc12)NC(=O)[C@H](Cc1ccccc1)NC(C)=O)C(=O)N[C@@H](C)C(=O)N[C@@H](Cc1c[nH]c2ccccc12)C(=O)N[C@@H](Cc1ccc(O)cc1)C(=O)N[C@@H](CCCCN)C(=O)N[C@@H](CC(C)C)C(=O)N[C@@H](C)C(N)=O` [SEQ ID NO: 19, Ac-Phe-Trp-Ile-Ala-Trp-Tyr-Lys-Leu-Ala-NH2] (Ac-FWIAWYKLA-NH2), the “IL-1β in heart homogenates” value (ELISA) is reported as “decreases the cytokines to values similar to control”, the “INF-γ in heart homogenates” value (ELISA) is reported as “decreases the cytokines to values similar to control” and the “TNF-α in heart homogenates” value (ELISA) is reported as “decreases the cytokines to values similar to control”. For the same compound, the “edematous weight gain of mediastinal lymph nodes” value (post-euthanasia organ weight) was “able to reduce the edematous weight gain”.
